From patent US11564392B2, “Methods of inactivation of viruses using n-methlyglucamide and its derivatives” (BAYER HEALTHCARE LLC, priority 2017, dated 2023)
“Also recorded” adds a separate entry of the source. Where two headings read alike, the source gives them in different places.

How the values were obtained:
X-MuLV [1] = type: cell-based, xenotropic murine leukemia virus; settings: for X-MuLV inactivation (FIG. 4): 0.5×, 1×, 2× of the CMC, room temperature; for X-MuLV inactivation (FIG. 4) / X-MuLV inactivation (FIG. 5): within 30 minutes; for X-MuLV inactivation (FIG. 5): 1× and 2× of the CMC
[2] = type: physicochemical
Method: Each detergent was obtained as powder from the manufacturer and was appropriately weighed and allowed to dissolve in Milli-Q water. […] The detergents were stored in a dark container in 2-8° C. Table 2 lists the manufacturers of the detergent powders and the in-house preparation which are also detailed in the methods section. […] This occurrence has been observed by others as well and may have to do with the increasing fatty chain length that enhances the hydrophobicity thus decreasing the likelihood of solubility, especially in water (Gaber et al., Burczyk, 2007).

[3] = 25° C.; cited from earlier work
X-MuLV [4] = experiment: X-MuLV inactivation in rFVIII by methylglucamides with or without Tw20, TnBP or NaCl, TCID50 assay; type: cell-based, xenotropic murine leukemia virus
Method: Methylglucamides were tested with other compounds to determine potential synergistic effects on viral inactivation. […] Then, the titers of each samples or controls were assayed using a TCID50 assay previously described. For each experiment (FIGS. 15, 16 and 17), the controls consisted of rFVIII spiked with X-MuLV with no detergent, and the yielded titers within the expected range of about 6.5 log10 TCID50/ml.

PRV = type: cell-based, porcine pseudorabies virus
[5] = target: T1, recombinant FVIII (rFVIII) (Homo sapiens, UniProt P00451); experiment: Chromogenic assay to assess human Factor VIII activity after detergent incubation; type: biochemical; settings: 0.3% (w/v)
T1 construct: recombinant human factor VIII (rFVIII) (full length wildtype, Bayer in-house preparation); made in house
Method: A diluent control of rFVIII matrix spiked only with Milli-Q H2O was also prepared and incubated under the same conditions. Following the incubation, detergents and diluent control were diluted in 1× assay buffer along with chromogenic assay (Chromogenix COATEST SP4 FVIII Kit, Cat: 82409463) FVIII standard and controls to the appropriate levels. Thirty μL of each detergent, control, and standard were loaded onto a 96-well plate in triplicate. Chromogenic assay reagents were added according to the manufacturer's protocol and incubated at 37.0° C. and 5.0% CO2 for 8 minutes. Assay plate was measured for absorbance t 405 and 492 nm on a Molecular Devices SpectraMax M5 microplate reader. Data was analyzed using SoftMax Pro v5.
The principle of the assay involves a specific step in the blood clotting mechanism, in which Factor X is converted to Factor Xa leading to the hydrolysis of the chromogenic substrate. This reaction is dependent on the activity of Factor VIII (FVIII) and directly correlates to measurable color intensity.

X-MuLV [6] = type: cell-based, xenotropic murine leukemia virus
BVDV = type: cell-based, bovine viral diarrhea virus; settings: for BVDV inactivation: Mega 10 0.2, 0.3, 0.4% (w/v), Mega 9 1.0% (w/v), 2.0° C.
[7] = rFVIII, 2° C., 30 min, Mega 8 1.81%, Mega 9 0.84%, Mega 10 0.20%, Mega 12 0.014% (w/v)
[8] = rFVIII, Room Temperature, 30 min, Mega 8 1.81%, Mega 9 0.45%, Mega 10 0.10%, Mega 12 0.014% (w/v)
[9] = 0.20% (w/v) Mega 10 or 0.71% (w/v) Mega 9, with or without NaCl
[10] = 0.3% (w/v), 2.0° C., 30 minutes

T1 sequence (P00451 20-2351): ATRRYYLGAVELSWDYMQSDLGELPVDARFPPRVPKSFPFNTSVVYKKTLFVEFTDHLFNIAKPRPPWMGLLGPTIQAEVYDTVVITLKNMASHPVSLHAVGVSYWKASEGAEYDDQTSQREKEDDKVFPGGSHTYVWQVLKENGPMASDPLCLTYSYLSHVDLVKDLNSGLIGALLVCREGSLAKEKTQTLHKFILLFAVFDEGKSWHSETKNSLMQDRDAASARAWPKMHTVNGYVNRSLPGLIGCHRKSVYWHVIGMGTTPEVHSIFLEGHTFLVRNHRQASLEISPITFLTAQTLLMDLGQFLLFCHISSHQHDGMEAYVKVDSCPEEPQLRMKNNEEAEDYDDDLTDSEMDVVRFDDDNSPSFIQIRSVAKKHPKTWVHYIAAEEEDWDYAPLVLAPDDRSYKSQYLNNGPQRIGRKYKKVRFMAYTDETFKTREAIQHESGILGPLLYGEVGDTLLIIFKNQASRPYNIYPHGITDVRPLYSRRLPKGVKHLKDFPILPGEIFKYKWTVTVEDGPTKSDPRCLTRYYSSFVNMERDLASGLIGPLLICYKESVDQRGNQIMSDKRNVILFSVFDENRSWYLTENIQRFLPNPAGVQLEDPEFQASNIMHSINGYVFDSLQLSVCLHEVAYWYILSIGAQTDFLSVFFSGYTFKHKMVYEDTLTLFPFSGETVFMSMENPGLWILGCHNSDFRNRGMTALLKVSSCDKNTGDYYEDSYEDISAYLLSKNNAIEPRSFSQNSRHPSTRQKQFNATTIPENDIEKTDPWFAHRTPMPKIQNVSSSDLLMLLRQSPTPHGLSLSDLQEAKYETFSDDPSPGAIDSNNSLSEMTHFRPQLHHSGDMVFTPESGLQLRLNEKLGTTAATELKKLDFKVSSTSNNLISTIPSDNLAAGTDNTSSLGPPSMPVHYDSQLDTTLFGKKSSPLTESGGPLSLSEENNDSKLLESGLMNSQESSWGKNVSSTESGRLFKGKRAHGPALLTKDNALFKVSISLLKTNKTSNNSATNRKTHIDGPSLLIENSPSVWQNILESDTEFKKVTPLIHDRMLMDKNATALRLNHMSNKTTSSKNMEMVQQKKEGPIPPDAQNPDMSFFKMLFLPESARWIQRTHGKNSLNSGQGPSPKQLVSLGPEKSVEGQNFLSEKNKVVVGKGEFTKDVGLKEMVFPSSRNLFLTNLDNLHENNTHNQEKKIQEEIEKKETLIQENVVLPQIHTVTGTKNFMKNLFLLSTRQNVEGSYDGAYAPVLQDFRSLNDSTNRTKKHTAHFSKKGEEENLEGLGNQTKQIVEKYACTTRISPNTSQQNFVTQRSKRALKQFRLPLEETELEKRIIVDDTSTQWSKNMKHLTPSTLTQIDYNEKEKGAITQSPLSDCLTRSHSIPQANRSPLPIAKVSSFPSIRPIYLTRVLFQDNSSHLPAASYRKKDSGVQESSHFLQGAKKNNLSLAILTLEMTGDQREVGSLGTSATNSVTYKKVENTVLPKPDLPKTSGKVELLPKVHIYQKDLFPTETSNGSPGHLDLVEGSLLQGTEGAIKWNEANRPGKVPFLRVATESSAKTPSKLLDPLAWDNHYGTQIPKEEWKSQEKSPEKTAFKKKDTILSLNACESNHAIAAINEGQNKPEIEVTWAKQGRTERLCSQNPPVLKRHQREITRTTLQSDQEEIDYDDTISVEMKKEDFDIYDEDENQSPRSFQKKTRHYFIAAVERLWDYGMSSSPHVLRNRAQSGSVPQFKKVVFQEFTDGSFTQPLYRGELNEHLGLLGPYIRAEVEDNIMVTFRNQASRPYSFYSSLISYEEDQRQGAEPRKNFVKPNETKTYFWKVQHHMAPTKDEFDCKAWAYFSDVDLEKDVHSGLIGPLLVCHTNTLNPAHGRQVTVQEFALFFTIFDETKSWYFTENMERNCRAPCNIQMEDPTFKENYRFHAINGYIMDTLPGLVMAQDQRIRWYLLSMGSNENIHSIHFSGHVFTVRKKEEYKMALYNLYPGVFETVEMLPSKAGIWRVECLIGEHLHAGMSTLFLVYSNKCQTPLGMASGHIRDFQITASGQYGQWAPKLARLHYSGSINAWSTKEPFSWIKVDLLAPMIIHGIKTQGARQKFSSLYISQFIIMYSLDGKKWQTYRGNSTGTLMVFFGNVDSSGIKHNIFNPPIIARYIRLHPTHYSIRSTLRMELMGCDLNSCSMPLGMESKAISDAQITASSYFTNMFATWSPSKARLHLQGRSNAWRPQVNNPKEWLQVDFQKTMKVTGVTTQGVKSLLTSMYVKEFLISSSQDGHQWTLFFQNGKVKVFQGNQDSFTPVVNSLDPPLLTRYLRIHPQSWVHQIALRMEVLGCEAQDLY
T1 sequence (P00451 1668-2351 limits assumed): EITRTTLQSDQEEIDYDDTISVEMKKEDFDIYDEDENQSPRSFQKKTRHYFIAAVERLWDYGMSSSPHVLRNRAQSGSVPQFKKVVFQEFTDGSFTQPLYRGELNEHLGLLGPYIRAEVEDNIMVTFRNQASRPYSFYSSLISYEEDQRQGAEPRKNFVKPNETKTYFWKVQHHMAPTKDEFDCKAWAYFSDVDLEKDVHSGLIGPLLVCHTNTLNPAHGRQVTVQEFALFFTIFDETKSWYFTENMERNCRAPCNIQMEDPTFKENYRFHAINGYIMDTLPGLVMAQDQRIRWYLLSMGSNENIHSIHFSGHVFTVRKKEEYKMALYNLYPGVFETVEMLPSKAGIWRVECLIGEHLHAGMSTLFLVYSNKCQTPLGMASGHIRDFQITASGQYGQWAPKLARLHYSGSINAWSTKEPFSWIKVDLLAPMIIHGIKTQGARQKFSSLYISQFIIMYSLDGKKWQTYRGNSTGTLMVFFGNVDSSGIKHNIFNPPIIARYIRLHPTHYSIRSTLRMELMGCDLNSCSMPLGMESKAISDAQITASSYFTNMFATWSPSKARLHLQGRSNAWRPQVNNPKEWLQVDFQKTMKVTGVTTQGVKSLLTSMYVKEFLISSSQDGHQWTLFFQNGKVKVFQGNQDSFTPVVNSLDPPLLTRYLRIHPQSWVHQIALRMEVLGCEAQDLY

Compound | X-MuLV inactivation (FIG. 4) (X-MuLV [1]) | X-MuLV inactivation (X-MuLV [1]; 0.5×CMC, 2° C., 30 minutes) | X-MuLV inactivation (X-MuLV [1]; 0.5×CMC, 25° C., 30 minutes) | X-MuLV inactivation (FIG. 5) (X-MuLV [1]; 2.0° C.) | Infection observed (X-MuLV [1]; [7]) | Log Reduction Factor (LRF) (X-MuLV [1]; [7]) | Infection observed (X-MuLV [1]; [8]) | Log Reduction Factor (LRF) (X-MuLV [1]; [8]) | solubilization of 5% (w/v) detergent in water [2] | CMC [3] [mM] | X-MuLV inactivation (X-MuLV [4]; [9]) | BVDV inactivation (BVDV; 30 minutes) | X-MuLV inactivation (X-MuLV [1]; [10]) | also measured
CCCCCCCCCCCC(=O)N(C)CC(O)C(O)C(O)C(O)CO (stereo not shown) [Mega 12, dodecanoyl-N-methylglucamide] | completely inactivated | No significant inactivation | No significant inactivation | completely inactivated | No | ≥4.37 | No | ≥4.32 | not able to dissolve water in a 37 °C water bath | 0.35 | – | – | – | solubilization of 0.15% stock in water [2]: able to come into solution when placed in a 60 °C water bath within 15 minutes
CCCCCCCC(=O)N(C)C[C@H](O)[C@@H](O)[C@H](O)[C@H](O)CO [Mega 8, octanoyl-N-methylglucamide] | completely inactivated | No significant inactivation | No significant inactivation | completely inactivated | No | ≥4.37 | No | ≥4.32 | readily solubilized in water at room temperature | 58 | – | – | – | –
CCCCCCCCCC(=O)N(C)C[C@H](O)[C@@H](O)[C@H](O)[C@H](O)CO [Mega 10, decanoyl-N-methylglucamide] | completely inactivated | partially | completely | completely inactivated | No | ≥4.37 | No | ≥4.32 | solubilize within 15 minutes | 6 to 7 | significantly inactivated | completely inactivated | complete X-MuLV inactivation; also recorded: inactivated X-MuLV completely | X-MuLV inactivation (X-MuLV [4]; 0.30% (w/v) M10 alone, +0.06% (w/v) Tw20, or +0.30% (w/v) TnBP, within 30 min): completely inactivated; PRV titer (limit of detection) (PRV; 0.2 and 0.3%, 2.0±1.0° C., 15 minutes): ≤ 2.03 Log10 TCID50/mL; time to inactivate PRV to the limit of detection (PRV; 0.2 or 0.3 (w/v), 2.0° C.): ≤ 15 min; effect on rFVIII activity ([5]; 2.0° C., 2 hour incubation): maintains its activity; also recorded: no effect on the activity of the protein drug; average activity of rFVIII ([5]; 2.0±1.0° C., 2 hours): 52.26 IU/mL; X-MuLV titer (limit of detection) (X-MuLV [6]): ≤ 2.03 Log10 TCID50/mL; X-MuLV inactivation (X-MuLV [6]; 0.2, 0.3, 0.4% (w/v) in human IgG and human plasma protein solutions, 2.0° C., 30 minutes): completely inactivated; speed of BVDV inactivation (BVDV; 0.2%): immediately after mixing; Infection Observed (X-MuLV [1]): No; Infection observed (X-MuLV [1]): No; LRF (X-MuLV [1]): ≥ 24.45; X-MuLV inactivation kinetics (X-MuLV [1]): immediate decrease (complete inactivation); also recorded: immediately inactivated; X-MuLV titer after treatment (limit of detection) (X-MuLV [1]): ≤ 2.03 TCID50/mL; lowest concentration to quickly and completely inactivate X-MuLV (X-MuLV [1]): approximately 0.23%; time to reach limit of detection (LOD) (X-MuLV [1]): ≤ 5 min; virus titer (X-MuLV [1]): about 2.62 Log10 TCID50/mL; virus titer (complete inactivation) (X-MuLV [1]): ≤ 2.03 Log10 TCID50/mL
CCCCCCCCC(=O)N(C)C[C@H](O)[C@@H](O)[C@H](O)[C@H](O)CO [Mega 9, nonaoyl-N-methylglucamide] | completely inactivated | partially | completely | completely inactivated | No | ≥4.37 | No | ≥4.32 | readily solubilized in water at room temperature | 19 to 25 | significantly inactivated | completely inactivated | – | time to inactivate BVDV to the LOD (BVDV; 1.0% (w/v)): ≤ 30 min; BVDV titer (detection limit) (BVDV; 1.0% (w/v), 2.0±1.0° C., 30 minutes): ≤ 2.03 Log10 TCID50/mL
P-tert-Octylphenoxy) polyethoxyethanol [Triton X-100, reference compound] | – | – | – | – | – | – | – | – | – | – | – | – | complete X-MuLV inactivation; also recorded: inactivated X-MuLV completely | X-MuLV titer after treatment (limit of detection) (X-MuLV [1]; [10]): ≤ 2.54 TCID50/mL
